In patent US5428031A, “Methods of treating cardiac arrhythmia” (priority 1993, dated 1995):

Assays:
Type in all cases: cell-based
[1] = tested on: IK1 (inward rectifier K+ current); assay: voltage clamp measurement of IK1 block in isolated guinea pig ventricular myocytes; conditions: 1 μM
Protocol: (§1) Guinea pig ventricular myocytes were isolated using a modification of the procedure described by Mitra R and Morad M., "A Uniform Enzymatic Method for Dissociation of Myocytes from Hearts and Stomachs of Nertilorates", Am. J. Physiol. 249:H1056-60 (1985). Excised hearts were perfused through the aorta (retrograde fashion) at a rate of 10 ml/min with oxygenated, warmed (37° C.) solutions described below. The heart was initially perfused for 7 minutes with a Tyrode's solution containing, in mM: 132 NaCl, 4 KCl, 1.2 MgCl2, 10 HEPES (formal name N-2-Hydroxyethylpiperazine-N-2-ethanesulfonic acid), 5 glucose, pH=7.2. The head was then perfused with the same nominally Ca^2+ -free solution containing 150 units/ml Type II collagenase (Worthington) and 0.5 units/ml Type XIV protease (Sigma) for 8 minutes. This perfusate was followed by a Tyrode's solution containing 0.2 mM CaCl2 (without enzymes) for 5 minutes. The digested ventricles were cut into small pieces and gently shaken until cells were visibly dispersed. […]
(§2) The suction microelectrode technique described by Giles, W. R. and Shibata, E. F., "Voltage clamp of bull-frog cardiac pacemaker cells: a quantitative, analysis of potassium currents". […]
(§3) To record K^+ currents, the cells were bathed in a Ca^2+ -free Tyrode's :solution containing […] nisoldipine. […] Data was analyzed as % block from control membrane currents. […]

ICa (Ca2+ current) = assay: voltage clamp measurement of Ca2+ current in isolated guinea pig ventricular myocytes; conditions: 0.1 μM
Protocol: as §1, §2, §3

[2] = tested on: guinea pig ventricular myocytes; assay: current-clamp action potential duration (APD90) in isolated myocytes, 0.2 Hz; conditions: Cavia porcellus, Ventricular myocyte, 4 cells
Protocol: as §1, §2
To record action potentials, single cells were bathed in 1.8 mM Ca^2+ -Tyrode's solution. […] Data were analyzed as percent (%) change in action potential duration at 90% of repolarization (APD90). […]

[3] = tested on: guinea pig ventricular myocytes; assay: frequency-dependent effects on action potential duration (APD90) in isolated ventricular myocytes; conditions: for APD90 percent change at 0.01 µM / APD90 percent change at 0.03 µM / APD90 percent change at 0.1 µM: Cavia porcellus, Ventricular myocyte; for APD90 percent change at 0.01 µM: 10 nM; for APD90 percent change at 0.03 µM: 30 nM; for APD90 percent change at 0.1 µM: 100 nM; for APD90 % Change: Washout
Protocol: Guinea pig ventricular myocytes were isolated using a modification of the procedure described by Mitra R and Morad M., "A Uniform Enzymatic Method for Dissociation of Myocytes from Hearts and Stomachs of Nertilorates", Am. J. Physiol. 249:H1056-60 (1985). Excised hearts were perfused through the aorta (retrograde fashion) at a rate of 10 ml/min with oxygenated, warmed (37° C.) solutions described below. The heart was initially perfused for 7 minutes with a Tyrode's solution containing, in mM: 132 NaCl, 4 KCl, 1.2 MgCl2, 10 HEPES (formal name N-2-Hydroxyethylpiperazine-N-2-ethanesulfonic acid), 5 glucose, pH=7.2. The head was then perfused with the same nominally Ca^2+ -free solution containing 150 units/ml Type II collagenase (Worthington) and 0.5 units/ml Type XIV protease (Sigma) for 8 minutes. This perfusate was followed by a Tyrode's solution containing 0.2 mM CaCl2 (without enzymes) for 5 minutes. The digested ventricles were cut into small pieces and gently shaken until cells were visibly dispersed. The cells were stored at room temperature until use, within 8 hours after isolation.
Cell preparation: Same as described in section I.
Transmembrane action potential measurements were made using a technique similar to that described previously by Salata, J. J. and Wasserstrom, J. A. "Effects of quinicline on action potentials and ionic currents in isolated canine ventricular myocytes", Circ. Res. 62:324-337, 1988. The isolated ventricular myocytes were transferred to a glass bottom experimental perfusion chamber (12×25 mm) filled with a HEPES-Tyrode's solution containing in mM: 132 NaCl, 4 KCl, 1.8 CaCl2, 1.2 MgCl2, 10 HEPES, 5 glucose, pH=7.2 to a height of 2 mm. After the myocytes settled to the bottom of the chamber, they were continuously superfused with preheated HEPES-Tyrode's solution at a rate of 2.0 ml/min. The temperature was monitored and maintained at 36°±0.5° C. The experimental chamber was placed on the stage of an inverted microscope (Nikon Diaphot-TMD) to view the cells. Transmembrane potentials were recorded by means of conventional glass microelectrodes that were filled with 3M KCl and had tip resistances of 40-60 M.OMEGA.. The microelectrode was connected through a Ag--AgCl electrode to the headstage preamplifier (model HS-2, gain=1.0) of an operational amplifier with a high input impedance and variable input capacitance neutralization (Axoclamp -2A, Axon Instruments, Foster City, Calif.). The voltage drop across the microelectrode produced by current injection was compensated electronically with an active bridge circuit immediately-before impalement of a cell. The experimental bath was grounded through a 3M KCl agar bridge and a Ag--AgCl junction. The microelectrodes were positioned carefully at the cell surface using a hydraulic micromanipulator (Narishige Model MO-303, Greenvale, N.Y.). Penetration of the cell membrane was achieved by briefly (1-3 msec)increasing the input capacitance neutralization to cause oscillation of the amplifier. After establishing a stable microelectrode seal, the myocyte was lifted off the bottom of the chamber to allow complete superfusion of the cell. Action potentials were generated by passing current pulses of 1 msec in duration, and with an intensity of 1.2 times threshold at varying stimulus rates through the recording electrode. Cells were allowed to stabilize for 20 minutes before collection of data began. Voltage signals were digitized using an analog to digital converter (TL-1, DMA interface, Axon Instruments, Foster City, Calif.) at a sampling frequency of 2 kHz. Data acquisition and analysis were performed with pClamp software (Axon Instruments, Foster City, Calif.) and an AST 486 computer (Irvine, Calif.). Action potentials were stimulated at rates of either 60, 120, and 180 beats/min and were allowed to stabilized for 1 minute at each rate. […]

**Q.** Cc1cccc(NC(=O)N[C@@H]2N=C(c3ccccc3)c3ccccc3N(C)C2=O)c1 [Compound 4, (R)-N-(2,3-dihydro-1-methyl-2-oxo-5-phenyl-1H-1,4-benzodiazepin-3-yl)-N'-(3-methylphenyl)urea] was tested. Which “effect on IK1” value [1] did it give?
**A.** Little or no effect

**Q.** What about the “effect on ICa” value (ICa (Ca2+ current)) of the same compound?
**A.** Little or no effect

**Q.** What about the percent increase in APD90 at 5 µM [2] of the same compound?
**A.** 202%

**Q.** How did the APD90 percent change at 0.01 µM ([3]; 60 beats/min) turn out when CN1C(=O)[C@H](NC(=O)/C=C/c2ccc(Cl)cc2Cl)N=C(c2ccccc2)c2ccccc21 [Example 26, E-(+)-N-[(3R)-2,3-Dihydro-1-methyl-2-oxo-5-phenyl-1H-1,4-benzo-diazepin-3-yl]-3-(2,4-dichlorophenyl)-2-propenamide] was run?
**A.** 9.4%

**Q.** And the APD90 percent change at 0.01 µM ([3]; 120 beats/min)?
**A.** 10.1%

**Q.** What about the APD90 percent change at 0.01 µM ([3]; 180 beats/min) of the same compound?
**A.** 12.4%

**Q.** What about the APD90 percent change at 0.03 µM ([3]; 60 beats/min) of the same compound?
**A.** 16%

**Q.** What about the APD90 percent change at 0.03 µM ([3]; 120 beats/min) of the same compound?
**A.** 14.8%

**Q.** And the APD90 percent change at 0.03 µM ([3]; 180 beats/min)?
**A.** 14.4%

**Q.** And the APD90 percent change at 0.1 µM ([3]; 60 beats/min)?
**A.** 24.7%

**Q.** And the APD90 percent change at 0.1 µM ([3]; 120 beats/min)?
**A.** 24.3%

**Q.** And the APD90 percent change at 0.1 µM ([3]; 180 beats/min)?
**A.** 22.9%

**Q.** And the “APD90 % Change” value ([3]; 60 beats/min)?
**A.** 4.2%

**Q.** And the “APD90 % Change” value ([3]; 120 beats/min)?
**A.** 5.3%

**Q.** And the “APD90 % Change” value ([3]; 180 beats/min)?
**A.** 5.9%

**Q.** And the “reversibility of APD90 increase” value ([3]; after 20 min of washout)?
**A.** nearly completely reversible

**Q.** And the “frequency dependence of APD90 increase” value ([3]; at higher concentrations)?
**A.** frequency-independent manner

**Q.** And the “frequency dependence of APD90 increase” value ([3]; at lower concentrations (10 nM))?
**A.** forward frequency-dependent manner

**Q.** And the “effect on action potential duration” value ([3]; isolated guinea pig myocytes)?
**A.** concentration and rate-dependent increases in the action potential duration
